Data taken from patent publication US20030068615A1, “Polypeptides that bind HIV gp120 and related nucleic acids, antibodies, compositions, and methods of use” (priority 1999, published 2003).

Biological target: HIV-1LAI envelope gp120 (Human immunodeficiency virus type 1 group M subtype B, UniProt P03377)
Assay type: binding
Details: CCR5 18-mer scan; radiolabeled HIV-1LAI gp120; background subtracted

Sequence | Counts per 20′ Average-background [counts per 20′]
AISDLFFLLTVPFWAHYA [CCR5 segment 73-90] | 41
LKARTVTFGVWDSVITWV [CCR5 segment 137-] | 74
KIVILGLVLPLLVMVICY | 65
APYNIVLLLNTFQEFFGL [CCR5 segment 249-] | 1962
GLNNCSSSNRLDQAMQVT [CCR5 segment 265-] | −31
GNTMCQLLTGLYFIGFFS [CCR5 segment 97-] | 941
LGMTHCCINPIIYAFVGE [CCR5 segment 285-] | 282
QEAPERASSVYTRSTGEQ [CCR5 segment 329-] | 84
SQKEGLHYTCSSHFPYSQ [CCR5 segment 169-] | 304
SQYQFWKNFQTLKIVILG [CCR5 segment 185-] | 1572
QWDFGNTMCQLLTGLYFI [CCR5 segment 93-] | 1019
NCKRLKSMTDIYLLNLAI [CCR5 segment 57-74] | 25

Same assay, conditions: CCR5 (1-18) alanine variants; mean of two syntheses and binding experiments ± average deviation; wild-type = 100%

Sequence | Relative % of Control [%]
MDYQVSSPIYDINYYTAE | 64 ± 6

Same assay, conditions: CXCR4 18-mer scan; background subtracted, empty control 0

Sequence | radioactive counts recorded in twenty minutes [counts]
KEPCFREENANFNKIFLP [CXCR4 segment 25-42] | 252
FYPNDLWVVVFQFQHIMV [CXCR4 segment 189-206] | 416
SDNYTEEMGSGDYDSMKE [CXCR4 segment 9-26] | 43
AQNALTSVSRGSSLKILS [CXCR4 segment 313-330] | 147
ICDRFYPNDLWVVVFQFQ [CXCR4 segment 185-202] | 306
HKWISITEALAFFHCCLN [CXCR4 segment 281-298] | 163
LPTIYSIIFLTGIVGNGL [CXCR4 segment 41-58] | 118
LGAKFKTSAQHALTSVSR | 200
LLLTIPDFIFANVSEADD | 1006

Same assay, conditions: CXCR4 18-mer scan; empty control 412

Sequence | radioactive counts recorded in twenty minutes [counts]
KEPCFREENANFNKIFLP [CXCR4 segment 25-42] | 664
FYPNDLWVVVFQFQHIMV [CXCR4 segment 189-206] | 828
SDNYTEEMGSGDYDSMKE [CXCR4 segment 9-26] | 455
AQNALTSVSRGSSLKILS [CXCR4 segment 313-330] | 559
ICDRFYPNDLWVVVFQFQ [CXCR4 segment 185-202] | 718
HKWISITEALAFFHCCLN [CXCR4 segment 281-298] | 575
LPTIYSIIFLTGIVGNGL [CXCR4 segment 41-58] | 530
LGAKFKTSAQHALTSVSR | 612
LLLTIPDFIFANVSEADD | 1418

Same assay, conditions: CXCR4 (1-18) alanine variants; mean of two syntheses and binding experiments ± average deviation; wild-type = 100%

Sequence | Relative % of Control [%]
MEGASIYTSDNYTEEMGS | 6 ± 0.3
MEGISIYTSDNYTAEMGS | 72 ± 1

Same assay, conditions: Panel A, 21-mers of CD4; empty control 515 and 617

Sequence | COUNTS of radiolabeled gp120 retained [counts]
AFQKASSIVYKKEGEQVEFSF | 3775
EFSFPLAFTVEKLTGSGELWW | 681
EGEQVEFSFPLAFTVEKLTGS | 739
FPLAFTVEKLTGSGELWWQAE | 6276

Same assay, conditions: Panel B, 15-mers and 18-mers of CD4; empty control 575

Sequence | COUNTS of radiolabeled gp120 retained [counts]
KIEDSDTYICEVEDQKEE | 858
TANSDTHLLQGQSLT | 513
YICEVEDQKEEVQLL | 1064
VFGLTANSDTHLLQG | 532
CEVEDQKEEVQLLVF | 1729
NFPLIIKNLKIEDSDTYI | 627
PLIIKNLKIEDSDTY | 661
IIKNLKIEDSDTYIC | 664
IIKNLKIEDSDTYICEVE | 751
ICEVEDQKEEVQLLVFGL | 3898
LVFGLTANSDTHLLQ | 609
DSDTYICEVEDQKEEVQL | 961
LIIKNLKIEDSDTYICEV | 634
EDSDTYICEVEDQKEEVQ | 788

Same assay, conditions: Panel C, 15-mers and 18-mers of CD4; empty control 556

Sequence | COUNTS of radiolabeled gp120 retained [counts]
VEFSFPLAFTVEKLT | 899
VLAFQKASSIVYKKEGEQ | 549
LAFTVEKLTGSGELWWQA | 866
EGEQVEFSFPLAFTVEKL | 2164
LQNQKKVEFKIDIVV | 644
IVVLAFQKASSIVYKKEG | 531
KIDIVVLAFQKASSI | 956
IDIVVLAFQKASSIV | 865
VYKKEGEQVEFSFPL | 714
